Patent US20230374038A1, “MODULATORS OF CYSTIC FIBROSIS TRANSMEMBRANE CONDUCTANCE REGULATOR” (VERTEX PHARMACEUTICALS INCORPORATED, priority 2020, published 2023)

Target: T1, CFTR (Homo sapiens, UniProt P13569, DEL508-508)
T1 construct: endogenous in cells; host or cells: primary human bronchial epithelial cells, F508del/MF genotype
Experiment: HBE Assay: Ussing chamber assay of CFTR-mediated short-circuit currents in F508del/MF-HBE cells with 1 μM Ivacaftor
Type: cell-based
Details: 20% human serum; for EC50 / HBE Max Activity / Emax: 18-24 hours; for Emax: compared to known Vertex corrector with 18 μM Tezacaftor and 1 μM Ivacaftor, read-out: HBE Max activity (%); for HBE Activity at 10 μM: single fixed concentration of 10 μM
Experimental: Ussing chamber experiments were performed using human bronchial epithelial (HBE) cells derived from CF subjects heterozygous for F508del and a minimal function CFTR mutation (F508del/MF-HBE) and cultured as previously described (Neuberger T, Burton B, Clark H, Van Goor F Methods Mol Biol 2011:741:39-54). After four days the apical media was removed, and the cells were grown at an air liquid interface for >14 days prior to use.
(§1) To isolate the CFTR-mediated short-circuit (ISC) current, F508del/MF-HBE grown on Costar® Snapwell™ cell culture inserts were mounted in an Ussing chamber and the transepithelial ISC was measured under voltage-clamp recording conditions (Vhold=0 mV) at 37° C. The basolateral solution contained (in mM) 145 NaCl, 0.83 K2HIPO4, 3.3 KH2PO4, 1.2 MgCl2, 1.2 CaCl2), 10 Glucose, 10 HEPES (pH adjusted to 7.4 with NaOH) and the apical solution contained (in mM) 145 NaGluconate, 1.2 MgCl2, 1.2 CaCl2), 10 glucose, 10 HEPES (pH adjusted to 7.4 with NaOH) and 30 μM amiloride to block the epithelial sodium channel. Forskolin (20 μM) was added to the apical surface to activate CFTR, followed by apical addition of a CFTR inhibitor cocktail consisting of BPO, GlyH-101, and CFTR inhibitor 172 (each at 20 μM final assay concentration) to specifically isolate CFTR currents. The CFTR-mediated ISC (μA/cm^2) for each condition was determined from the peak forskolin response to the steady-state current following inhibition.
The activity of the CFTR corrector compounds on the CFTR-mediated ISC was determined in Ussing chamber studies as described above. The F508del/MF-HBE cell cultures were either incubated with the corrector compounds at a range of concentrations in combination with 1 μM Ivacaftor or were incubated with the corrector compounds at a single fixed concentration of 10 μM in combination with 1 μM Ivacaftor for 18-24 hours at 37° C. and in the presence of 20% human serum. The concentration of corrector compounds with 1 μM Ivacaftor during the 18-24 hours incubations was kept constant throughout the Ussing chamber measurement of the CFTR-mediated ISC to ensure compounds were present throughout the entire experiment.
as §1, with “K2HPO4,” for “K2HIPO4,”

[1] = range of concentrations with 1 μM Ivacaftor

T1 sequence (P13569 with tags, fused parts or gaps DEL508-508): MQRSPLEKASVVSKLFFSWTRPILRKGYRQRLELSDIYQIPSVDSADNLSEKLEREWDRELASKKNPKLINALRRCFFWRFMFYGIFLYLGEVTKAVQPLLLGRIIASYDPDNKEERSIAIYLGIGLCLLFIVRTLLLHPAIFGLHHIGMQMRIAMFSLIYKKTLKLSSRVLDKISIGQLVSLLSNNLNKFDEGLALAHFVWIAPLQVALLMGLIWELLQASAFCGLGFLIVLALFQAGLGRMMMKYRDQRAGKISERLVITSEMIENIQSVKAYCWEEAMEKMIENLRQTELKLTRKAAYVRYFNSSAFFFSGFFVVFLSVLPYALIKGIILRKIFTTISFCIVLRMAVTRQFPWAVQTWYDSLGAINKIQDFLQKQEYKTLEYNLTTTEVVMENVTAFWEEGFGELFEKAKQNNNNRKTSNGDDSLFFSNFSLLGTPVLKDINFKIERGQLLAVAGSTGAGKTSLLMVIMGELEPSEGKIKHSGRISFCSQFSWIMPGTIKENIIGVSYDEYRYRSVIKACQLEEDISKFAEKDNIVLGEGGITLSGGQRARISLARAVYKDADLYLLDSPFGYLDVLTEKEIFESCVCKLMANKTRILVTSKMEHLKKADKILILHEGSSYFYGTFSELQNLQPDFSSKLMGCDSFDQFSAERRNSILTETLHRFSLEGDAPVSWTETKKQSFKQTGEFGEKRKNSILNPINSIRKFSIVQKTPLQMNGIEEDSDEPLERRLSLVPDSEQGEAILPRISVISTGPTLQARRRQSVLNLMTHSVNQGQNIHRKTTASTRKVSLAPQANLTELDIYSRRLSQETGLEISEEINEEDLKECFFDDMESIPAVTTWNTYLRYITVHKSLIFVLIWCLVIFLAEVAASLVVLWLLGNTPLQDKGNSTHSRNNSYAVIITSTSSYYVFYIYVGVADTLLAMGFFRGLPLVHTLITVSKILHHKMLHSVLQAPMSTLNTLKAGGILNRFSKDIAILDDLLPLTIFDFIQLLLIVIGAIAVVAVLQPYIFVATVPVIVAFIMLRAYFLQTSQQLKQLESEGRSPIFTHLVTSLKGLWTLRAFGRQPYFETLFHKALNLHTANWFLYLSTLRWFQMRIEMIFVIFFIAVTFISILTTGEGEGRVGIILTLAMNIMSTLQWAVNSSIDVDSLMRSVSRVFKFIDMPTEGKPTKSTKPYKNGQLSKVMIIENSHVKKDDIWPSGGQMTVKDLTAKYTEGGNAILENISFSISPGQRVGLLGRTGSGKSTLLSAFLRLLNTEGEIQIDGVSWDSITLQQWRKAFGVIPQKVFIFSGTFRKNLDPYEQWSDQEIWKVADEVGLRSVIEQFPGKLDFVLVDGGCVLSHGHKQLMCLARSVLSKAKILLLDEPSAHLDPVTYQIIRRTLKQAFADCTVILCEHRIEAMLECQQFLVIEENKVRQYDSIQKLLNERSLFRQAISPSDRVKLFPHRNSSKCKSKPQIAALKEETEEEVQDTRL

| Compound | EC50 (with 1 μM Ivacaftor) | HBE Max Activity (with 1 μM Ivacaftor) | EC50 [1] | Emax (with 1 μM Ivacaftor) | HBE Activity at 10 μM (with 1 μM Ivacaftor) |
| --- | --- | --- | --- | --- | --- |
| COc1c2nc(nc1-c1c(C)cccc1C)NS(=O)(=O)c1cccc(c1)C(=O)N(Cc1ncc(OC(C)C)cn1)[C@H](CC(C)C)CO2 [Compound 348] | – | – | < 1000 nM | > 60% | – |
| Cc1cccc(CC(C)C)c1-c1nc2nc(c1C(F)(F)F)OC[C@@H](CC(C)(C)C)N(Cc1ccc(N3CCOCC3)cn1)C(=O)c1cccc(c1)S(=O)(=O)N2 (atropisomer, axis not shown) [Compound 246] | < 1000 nM | +++ (+++ is >600%) | – | – | – |
| Cc1cccc(C)c1-c1nc2nc(c1F)OC[C@@H](CC1CC1)N(Cc1ncc(OC3CCC3)cn1)C(=O)c1cccc(c1)S(=O)(=O)N2 [Compound 344] | – | – | 1000 to 3000 nM | > 60% | – |
| Cc1cccc(CC(C)(C)C)c1-c1nc2nc(c1C)OC[C@@H](CC(C)(C)C)N(Cc1ncc(N3CCC(C)(C)C3)cn1)C(=O)c1cccc(c1)S(=O)(=O)N2 (atropisomer, axis not shown; (M)) [Compound 214, (5M,11R)-11-(2,2-dimethylpropyl)-6-[2-(2,2-dimethylpropyl)-6-methylphenyl]-12-{[5-(3,3-dimethylpyrrolidin-1-yl)pyrimidin-2-yl]methyl}-7-methyl-9-oxa-2λ^6-thia-3,5,12,19-tetraazatricyclo[12.3.1.14,8]nonadeca-1(17),4(19),5,7,14(18),15-hexaene-2,2,13-trione] | – | – | – | – | ++ (++ is 30-60%) |
| CCc1cccc(C)c1-c1nc2nc(c1C)OC[C@@H](CC(C)(C)C)N(Cc1ccc(N3CCOCC3)cn1)C(=O)c1cccc(c1)S(=O)(=O)N2 (atropisomer, axis not shown) [Compound 287] | < 1000 nM | +++ (+++ is >600%) | – | – | – |
| Cc1cccc(CC2CCCCC2)c1-c1nc2nc(c1C(F)(F)F)OC[C@@H](CC(C)(C)C)N(Cc1ccc(N3CCOCC3)cn1)C(=O)c1cccc(c1)S(=O)(=O)N2 (atropisomer, axis not shown) [Compound 248] | – | – | – | – | +++ (+++ is >600%) |

Other lines, results leading:

| EC50 (with 1 μM Ivacaftor) | HBE Max Activity (with 1 μM Ivacaftor) | EC50 [1] | Emax (with 1 μM Ivacaftor) | HBE Activity at 10 μM (with 1 μM Ivacaftor) | Compound |
| --- | --- | --- | --- | --- | --- |
| < 1000 nM | +++ (+++ is >600%) | – | – | – | Cc1cccc(CC2CCCC2)c1-c1nc2nc(c1C)OC[C@@H](CC(C)(C)C)N(Cc1ncc(N3CCOCC3)cn1)C(=O)c1cccc(c1)S(=O)(=O)N2 (atropisomer, axis not shown) [Compound 281] |
| < 1000 nM | +++ (+++ is >600%) | – | – | – | Cc1cccc(C)c1-c1nc2nc(c1C)OC[C@@H](CC(C)C)N(Cc1ncc(OC(C)C)cn1)C(=O)c1cccc(c1)S(=O)(=O)N2 [Compound 193] |
| – | – | – | – | ++ (++ is 30-60%) | Cc1cccc(CC2CCOCC2)c1-c1nc2nc(c1C)OC[C@@H](CC(C)(C)C)N(Cc1ncc(N3CCOCC3)cn1)C(=O)c1cccc(c1)S(=O)(=O)N2 (atropisomer, axis not shown; (M)) [Compound 217, (5M,11R)-11-(2,2-dimethylpropyl)-7-methyl-6-{2-methyl-6-[(oxan-4-yl)methyl]phenyl}-12-{[5-(morpholin-4-yl)pyrimidin-2-yl]methyl}-9-oxa-2λ^6-thia-3,5,12,19-tetraazatricyclo[12.3.1.14,8]nonadeca-1(17),4(19),5,7,14(18),15-hexaene-2,2,13-trione] |
| 1000 to 3000 nM | +++ (+++ is >600%) | – | – | – | COCCN(C)c1cnc(CN2C(=O)c3cccc(c3)S(=O)(=O)Nc3nc(c(C)c(-c4c(C)cccc4CC4CCCCC4)n3)OC[C@H]2CC(C)(C)C)cn1 [Compound 278] |
| – | – | < 1000 nM | > 60% | – | Cc1cccc(C)c1-c1nc2nc(c1F)OC[C@@H](CC(C)(C)C)N(Cc1ncc(OC3CCC3)cn1)C(=O)c1cccc(c1)S(=O)(=O)N2 [Compound 336] |
| < 1000 nM | +++ (+++ is >600%) | – | – | – | Cc1cccc(CC2CCCCC2)c1-c1nc2nc(c1C)OC[C@@H](CC(C)(C)C)N(Cc1nccc(C(C)C)n1)C(=O)c1cccc(c1)S(=O)(=O)N2 [Compound 250] |
| < 1000 nM | +++ (+++ is >600%) | – | – | – | Cc1cccc(CC2CCCC2)c1-c1nc2nc(c1C)OC[C@@H](CC(C)(C)C)N(Cc1ncc(OC(C)C)cn1)C(=O)c1cccc(c1)S(=O)(=O)N2 (atropisomer, axis not shown) [Compound 266] |
